Data from US20260327221A1, “INHIBITORS OF CYCLIC GMP-AMP SYNTHASE AND USES THEREOF” (Ventus Therapeutics U.S., Inc., priority 2023, published 2026).

Target: hcGAS (Homo sapiens, UniProt Q8N884)
Experiment: hcGAS LCMS assay (direct measurement of cGAMP production by LC/MS)
Format: biochemical
Conditions: 4 h incubation with enzyme and substrates; cGAMP production by LC/MS; class symbols; read-out: hcGAS LCMS IC50
Method: cGAS catalyzes the cyclization of ATP and GTP to produce cGAMP, which is the activating ligand of STING. Human cGAS (hcGAS) inhibition can thus be quantified by measuring how much cGAMP is formed either indirectly, by monitoring ATP-depletion as in the hcGAS Kinase-Glo assay (as described below), or directly, such as using the hcGAS LCMS assay (as described below).
2. hGAS LCMS Assay Conditions
Compounds were tested for their hcGAS inhibition activity using direct measurement of cGAMP production by LC/MS. Briefly, compounds were incubated with enzyme and substrates for 4 hours (see Table C), before the reaction was stopped with 3 volumes of 70/30 Acetonitrile/H2O mix containing 0.15 uM cGAMP-^13C10^15N5 as internal standard and mixed for 5 mmn. After centrifugation (3700 rpm, […], […]), 100 uL of each reaction was collected and mixed to equal volume of acetonitrile (MeCN). Samples were then analyzed on Qexactive (Column: XBridge BEH Amide Column, 130 Å, 3.5 μm, 3 mm×50 mm. Mobile phase A: 10 mM Ammonium acetate in 95/5 H2O/MeCN (0.5% DMSO), Mobile phase B: MeCN (0.5% DMSO).
The results of the assay, expressed as IC50 values, are reported in Table D with the following designations: A represents an IC50 value <0.005 μM (with A1 representing an IC50 value <0.0005 μM, A2 representing an IC50 value ≥0.0005 μM and <0.001 μM, and A3 representing an IC50 value ≥0.001 μM and <0.005 μM); B represents an IC50 value ≥0.005 μM and <0.02 μM; C represents an IC50 value ≥0.02 μM and <0.06 μM; and D represents an IC50 value ≥0.06 μM.

Chain of hcGAS (Q8N884 whole entry): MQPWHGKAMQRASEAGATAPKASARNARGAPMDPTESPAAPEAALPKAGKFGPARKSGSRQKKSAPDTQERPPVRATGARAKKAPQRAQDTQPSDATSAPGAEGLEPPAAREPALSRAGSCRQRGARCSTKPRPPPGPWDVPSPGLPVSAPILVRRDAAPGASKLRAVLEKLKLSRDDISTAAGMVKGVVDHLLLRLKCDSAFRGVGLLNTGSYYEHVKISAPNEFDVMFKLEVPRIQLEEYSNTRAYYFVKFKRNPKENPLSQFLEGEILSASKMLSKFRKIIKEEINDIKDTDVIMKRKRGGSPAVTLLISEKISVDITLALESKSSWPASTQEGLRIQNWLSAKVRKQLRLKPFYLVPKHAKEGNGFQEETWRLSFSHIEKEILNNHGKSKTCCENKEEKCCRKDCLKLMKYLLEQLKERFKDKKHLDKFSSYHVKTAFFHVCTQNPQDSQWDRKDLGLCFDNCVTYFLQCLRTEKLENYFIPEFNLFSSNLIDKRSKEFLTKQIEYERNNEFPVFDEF

Row | Compound | IC50 [nM]
1 | COCC(CN1CCSCC1)Oc1c(-c2c(OC)cccc2OC)cc(C(=O)Nc2nnc(-n3nccc3N)s2)oc1=O (stereo not shown) [78A*/78B*] | 5 to 20
2 | COc1cccc(OC)c1-c1cc(C(=O)Nc2nnc(-n3nccc3N)s2)oc(=O)c1OC[C@@H](CO)N1CCSCC1 [79A*, (R)-N-(5-(5-amino-1H-pyrazol-1-yl)-1,3,4-thiadiazol-2-yl)-4-(2,6-dimethoxyphenyl)-3-(3-hydroxy-2-thiomorpholinopropoxy)-2-oxo-2H-pyran-6-carboxamide] | 1 to 5
3 | COc1cccc(OC)c1-c1cc(C(=O)Nc2nnc(-n3nccc3N)s2)oc(=O)c1OC[C@H](CO)N1CCSCC1 [79B*, (S)-N-(5-(5-amino-1H-pyrazol-1-yl)-1,3,4-thiadiazol-2-yl)-4-(2,6-dimethoxyphenyl)-3-(3-hydroxy-2-thiomorpholinopropoxy)-2-oxo-2H-pyran-6-carboxamide] | 1 to 5
4 | COc1cccc(OC)c1-c1cc(C(=O)Nc2nnc(-n3nccc3N)s2)oc(=O)c1O[C@H](CO)CN1CCSCC1 [81A*, (S)-N-(5-(5-amino-1H-pyrazol-1-yl)-1,3,4-thiadiazol-2-yl)-4-(2,6-dimethoxyphenyl)-3-((1-hydroxy-3-thiomorpholinopropan-2-yl)oxy)-2-oxo-2H-pyran-6-carboxamide] | 1 to 5
5 | COc1cccc(OC)c1-c1cc(C(=O)Nc2nnc(-n3nccc3N)s2)oc(=O)c1O[C@@H](CO)CN1CCSCC1 [81B*, (R)-N-(5-(5-amino-1H-pyrazol-1-yl)-1,3,4-thiadiazol-2-yl)-4-(2,6-dimethoxyphenyl)-3-((1-hydroxy-3-thiomorpholinopropan-2-yl)oxy)-2-oxo-2H-pyran-6-carboxamide] | 1 to 5
6 | COc1cccc(OC)c1-c1cc(C(=O)Nc2nnc(-n3nccc3N)s2)oc(=O)c1OCCN1CCO[C@H](CSC)C1 [82A*, (S)-N-(5-(5-amino-1H-pyrazol-1-yl)-1,3,4-thiadiazol-2-yl)-4-(2,6-dimethoxyphenyl)-3-(2-(2-((methylthio)methyl)morpholino)ethoxy)-2-oxo-2H-pyran-6-carboxamide] | 1 to 5
7 | COCC(CN1CCOCC1)Oc1c(-c2c(OC)cccc2OC)cc(C(=O)Nc2nnc(-n3nccc3N)s2)oc1=O (stereo not shown) [84A*/84B*] | 5 to 20

Results, then the molecule that gave them:

Row | IC50 [nM] | Compound
8 | 0.5 to 1 | COc1cccc(OC)c1-c1cc(C(=O)Nc2nnc(-n3nccc3N)s2)oc(=O)c1OC[C@@H]1CCCO1 [56A*, (S)-N-(5-(5-amino-1H-pyrazol-1-yl)-1,3,4-thiadiazol-2-yl)-4-(2,6-dimethoxyphenyl)-2-oxo-3-((tetrahydrofuran-2-yl)methoxy)-2H-pyran-6-carboxamide]
9 | 0.5 to 1 | COc1cccc(OC)c1-c1cc(C(=O)Nc2nnc(-n3nccc3N)s2)oc(=O)c1OC[C@H]1CCCO1 [56B*, (R)-N-(5-(5-amino-1H-pyrazol-1-yl)-1,3,4-thiadiazol-2-yl)-4-(2,6-dimethoxyphenyl)-2-oxo-3-((tetrahydrofuran-2-yl)methoxy)-2H-pyran-6-carboxamide]
10 | 0.5 to 1 | COc1cccc(OC)c1-c1cc(C(=O)Nc2nnc(-n3nccc3N)s2)oc(=O)c1OCCN1CCO[C@@H](CSC)C1 [82B*, (R)-N-(5-(5-amino-1H-pyrazol-1-yl)-1,3,4-thiadiazol-2-yl)-4-(2,6-dimethoxyphenyl)-3-(2-(2-((methylthio)methyl)morpholino)ethoxy)-2-oxo-2H-pyran-6-carboxamide]
11 | 0.5 to 1 | COc1cccc(OC)c1-c1cc(C(=O)Nc2nnc(-n3nccc3N)s2)oc(=O)c1OCC1CSCCO1 (stereo not shown) [83A*/83B*]
12 | 0.5 to 1 | COc1cccc(OC)c1-c1cc(C(=O)Nc2nnc(-n3nccc3N)s2)oc(=O)c1OCC(O)CN1CCSCC1 (stereo not shown) [91A*/91B*]
13 | 0.5 to 1 | COC[C@@H](CO)COc1c(-c2c(OC)cccc2OC)cc(C(=O)Nc2nnc(-n3nccc3N)s2)oc1=O [92A*, (R)-N-(5-(5-amino-1H-pyrazol-1-yl)-1,3,4-thiadiazol-2-yl)-4-(2,6-dimethoxyphenyl)-3-(3-hydroxy-2-(methoxymethyl)propoxy)-2-oxo-2H-pyran-6-carboxamide]
